For test [1], the target named is T1, human recombinant 5-HT2A receptor (Homo sapiens, UniProt P28223).
T1 construct: expressed in transfected cells; host or cells: Jump-In HEK cells (membrane preparation)
Description: Test Example 1-2: 5-HT2A receptor binding inhibition test ([3H]-Ketanserin; non-specific ligand Ketanserin). The protocol:
The Kd value is calculated when the lot of the cell membrane is changed. 1 mmol/L non-specific binding calculating compound dissolved in DMSO or DMSO is previously dispensed to the microplate by 0.5 µL, and the cell membrane is diluted with an Assay buffer. The radioactive ligand solution is diluted step by step, and counts are checked with a liquid scintillator. The Assay buffer containing diluted cell membranes is dispensed by 50 µL/well into the microplate. The radioactive ligand solution is then dispensed by 50 µL/well into the microplate and the plate is sealed. The microplate is allowed to stand for 1.5 hours at room temperature (25°C). During this time, 50 mmol/L Tris-HCl (pH 7.4) is dispensed by 50 µL/well into the UniFilter plate and allowed to stand at 4°C for 1 hour or longer. Thereafter, filtration is performed with a Cell Harvester (PerkinElmer). The radioactive ligand solution is dispensed by 10 µL/well into empty wells of the UniFilter plate. After drying the UniFilter plate at room temperature, MicroScinti20 is dispensed by 50 µL/well into the UniFilter plate, and the plate is sealed. UniFilter plate is allowed to stand at room temperature overnight. The radioactivity of [^3H]-Ketanserin bound to the 5-HT2A receptor is measured using Microbeta2 (PerkinElmer) at a measurement time of 1 min/well. The Saturation curve is drawn from the measured value, and the Kd value is calculated from the slope of the Scatchard Plot.
A compound solution dissolved in DMSO is dispensed to a microplate by 0.5 µL, and a cell membrane and a hot ligand are each diluted with an Assay buffer. The Assay buffer containing diluted cell membrane is then dispensed by 50 µL/well into the microplate. The radioactive ligand solution is then dispensed by 50 µL/well into the microplate and the plate is sealed. Thereafter, the microplate is allowed to stand at room temperature (25°C) for 1.5 hours. During this time, 50 mmol/L Tris-HCl (pH 7.4) is dispensed by 50 µL/well into the UniFilter plate and allowed to stand at 4°C for 1 hour or longer. Thereafter, filtration is performed with a Cell Harvester (PerkinElmer). After drying the UniFilter plate at room temperature, MicroScinti20 is dispensed by 50 µL/well into the UniFilter plate, and the plate is sealed. UniFilter plate is allowed to stand at room temperature overnight. The radioactivity of [^3H]-Ketanserin bound to the 5-HT2A receptor is measured using Microbeta2 (PerkinElmer) at a measurement time of 1 min/well. Non-specific binding is calculated from the radioactivity of [^3H]-Ketanserin in the presence of 500 µmol/L Ketanserin of unlabeled ligand, and total binding is calculated from the radioactivity of [^3H]-Ketanserin in the absence of the compound of the present invention (Vehicle). Finally, the Ki value is calculated from the dose-response curve.
(§1) (The binding activity of the compound according to the present invention is calculated from the following binding inhibition rate (%).) Inhibition rate (%) = [1−(c−a)/(b−a)] × 100 [formula] • a; average cpm of non-specific binding • b; average cpm of total binding • c; cpm in the presence of the test compound
(§2) The compounds of the present invention were tested essentially as described above.

In test [2] the target is T2, human recombinant 5-HT2C receptor (Homo sapiens, UniProt P28335).
T2 construct: expressed in transfected cells; host or cells: Jump-In HEK cells (membrane preparation)
T2 sequence (P28335 33-458): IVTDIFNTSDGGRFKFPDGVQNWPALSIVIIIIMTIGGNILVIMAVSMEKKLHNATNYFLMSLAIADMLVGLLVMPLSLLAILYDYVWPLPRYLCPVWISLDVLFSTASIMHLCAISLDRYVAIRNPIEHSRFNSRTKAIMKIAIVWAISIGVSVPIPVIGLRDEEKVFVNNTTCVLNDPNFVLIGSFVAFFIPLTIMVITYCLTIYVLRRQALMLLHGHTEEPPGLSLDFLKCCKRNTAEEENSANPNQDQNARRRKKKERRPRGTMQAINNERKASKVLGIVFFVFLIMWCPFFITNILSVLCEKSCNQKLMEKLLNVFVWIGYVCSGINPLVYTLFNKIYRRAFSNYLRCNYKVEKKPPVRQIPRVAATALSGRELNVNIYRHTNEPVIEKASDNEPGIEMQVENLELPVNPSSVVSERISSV
Description: Test Example 2: 5-HT2C receptor binding inhibition test ([3H]-Mesulergine; non-specific ligand Serotonin HCl). As to conditions: human serotonin 5-HT2C receptor binding activity. The protocol: The Kd value is calculated when the lot of the cell membrane is changed. 1 mmol/L non-specific binding calculating compound dissolved in DMSO or DMSO is previously dispensed to the microplate by 0.5 µL, and the cell membrane is diluted with an Assay buffer. The radioactive ligand solution is diluted step by step, and counts are checked with a liquid scintillator. The Assay buffer containing diluted cell membranes is dispensed by 50 µL/well into the microplate. The radioactive ligand solution is then dispensed by 50 µL/well into the microplate and the plate is sealed. The microplate is allowed to stand at 37°C for 2 hours. During this time, 50 mmol/L Tris-HCl (pH 7.4) is dispensed by 50 µL/well into the GF/B UniFilter plate and allowed to stand at 4°C for 1 hour or longer. Thereafter, filtration is performed with a Cell Harvester (PerkinElmer). The radioactive ligand solution is dispensed by 10 µL/well into empty wells of the GF/B UniFilter plate. After drying the GF/B UniFilter plate at room temperature, MicroScinti20 is dispensed by 50 µL/well into the GF/B UniFilter plate, and the plate is sealed. GF/B UniFilter plate is allowed to stand at room temperature overnight. The radioactivity of [^3H]-Mesulergine bound to the 5-HT2C receptor is measured using Microbeta2 (PerkinElmer) at a measurement time of 1 min/well. The Saturation curve is drawn from the measured value, and the Kd value is calculated from the slope of the Scatchard Plot.
A compound solution dissolved in DMSO is dispensed to a microplate by 0.5 µL, and a cell membrane and a hot ligand are each diluted with an Assay buffer. The Assay buffer containing diluted cell membrane is then dispensed by 50 µL/well into the microplate. The radioactive ligand solution is then dispensed by 50 µL/well into the microplate and the plate is sealed. The microplate is then allowed to stand at 37°C for 2 hours. During this time, 50 mmol/L Tris-HCl (pH 7.4) is dispensed by 50 µL/well into the GF/B UniFilter plate and allowed to stand at 4°C for 1 hour or longer. Thereafter, filtration is performed with a Cell Harvester (PerkinElmer). After drying the GF/B UniFilter plate at room temperature, MicroScinti20 is dispensed by 50 µL/well into the GF/B UniFilter plate, and the plate is sealed. GF/B UniFilter plate is allowed to stand at room temperature overnight. The radioactivity of [^3H]-Mesulergine bound to the 5-HT2C receptor is measured using Microbeta2 (PerkinElmer) at a measurement time of 1 min/well. Non-specific binding is calculated from the radioactivity of [^3H]-Mesulergine in the presence of 500 µmol/L Serotonin HCl of unlabeled ligand, and total binding is calculated from the radioactivity of [^3H]-Mesulergine in the absence of the compound of the present invention (Vehicle). Finally, the Ki value is calculated from the dose-response curve.
as §1, §2

The mark [3] stands for this setting: [3H]-Ketanserin; non-specific binding with 500 µmol/L Ketanserin; room temperature (25°C), 1.5 hours; read-out: h 5-HT2A Ki.
The mark [4] stands for this setting: read-out: h 5-HT2A Ki; [3H]-Ketanserin; non-specific binding with 500 µmol/L Ketanserin; room temperature (25°C), 1.5 hours.

Read-outs that look alike come from different tables or passages of the source.

The text below walks through data of patent EP4631938A1, “NITROGEN-CONTAINING HETEROCYCLE WITH SEROTONIN RECEPTOR-BINDING ACTIVITY AND CARBOCYCLIC DERIVATIVE” (Shionogi & Co., Ltd, priority 2022, dated 2024).

Usually Ki stands for the dissociation constant of the complex between target and ligand, obtained from inhibition or displacement.

T1 sequence (P28223 whole entry): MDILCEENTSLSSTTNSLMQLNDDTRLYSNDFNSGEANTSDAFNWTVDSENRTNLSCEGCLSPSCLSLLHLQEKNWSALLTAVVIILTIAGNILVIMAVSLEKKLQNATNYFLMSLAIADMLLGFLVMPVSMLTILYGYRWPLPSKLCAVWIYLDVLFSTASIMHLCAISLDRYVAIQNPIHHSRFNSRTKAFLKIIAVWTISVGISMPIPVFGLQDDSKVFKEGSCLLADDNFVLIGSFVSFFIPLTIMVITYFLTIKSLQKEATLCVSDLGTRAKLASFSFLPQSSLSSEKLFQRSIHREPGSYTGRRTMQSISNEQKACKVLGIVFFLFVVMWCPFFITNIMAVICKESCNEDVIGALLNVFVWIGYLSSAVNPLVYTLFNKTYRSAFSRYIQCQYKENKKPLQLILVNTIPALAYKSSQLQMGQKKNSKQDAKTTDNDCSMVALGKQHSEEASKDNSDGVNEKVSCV

Regarding `COCc1nc(C)c(-c2cc(Nc3ncc(C4CC4(F)F)cc3Cl)ncc2OCCO)c(C)n1` (racemic) [Compound I-194], the Ki came out at 8.31 nM in test [1] (setting [3]) and 6.01 nM in test [2].

Turning to `Cc1nc(C2CCCO2)nc(C)c1-c1cc(Nc2ncc(C(F)(F)F)cc2F)ncc1OCCO` (racemic) [Compound I-198], the Ki came to 5.3 nM in test [1] (setting [3]) and 9.63 nM in test [2]. On the same counts, the results for `Cc1nc(OCC2CCCO2)nc(C)c1-c1cc(Nc2ncc(C(F)(F)F)cc2Cl)ncc1OCCO` (racemic) [Compound I-214] are 1.66 nM and 8.87 nM. `Cc1nc(C2CCO2)nc(C)c1-c1cc(Nc2ncc(C(F)(F)F)cc2Cl)ncc1OCCO` (racemic) [Compound I-216]: the results for the Ki in test [1] (setting [3]) and in test [2] were 1.81 nM and 5.53 nM, respectively.

Regarding `Cc1nc(COC2CCCOC2)nc(C)c1-c1cc(Nc2ncc(C(F)(F)F)cc2Cl)ncc1OCCO` (racemic) [Compound I-382], the Ki in test [1] (setting [3]) was found to be 2.44 nM; in test [2], 3.43 nM. As for `CC(CO)Oc1cnc(Nc2ncc(C(F)(F)F)cc2F)cc1-c1c(Br)cnn1C` (single isomer, unassigned) [Compound I-224], the Ki in test [1] (setting [4]) stood at 0.521 nM. Same read-out and setting: next, `CC(CO)Oc1cnc(Nc2ncc(C(F)(F)F)cc2F)cc1-c1c(Br)cnn1C` (single isomer, unassigned) [Compound I-225]: 0.396 nM.

Consider `Cn1ncc(Br)c1-c1cc(Nc2ncc(Cl)cn2)ccc1OCCO` [Compound I-119], for which, in test [1] (setting [3]), the Ki stood at 0.315 nM. In the case of `Cc1nc(C)c(-c2cc(Nc3ncc(C(F)(F)F)cc3F)c(F)cc2OCCO)c(C)n1` [Compound I-146], the Ki in test [1] (setting [3]) turned out to be 0.678 nM. Take `Cc1cnn(C)c1-c1cc(Nc2ncc(Cl)cc2F)c(F)cc1OCCO` [Compound I-160]: the Ki in test [1] (setting [3]) came to 0.21 nM; in test [2] it was 3.01 nM. For the compound `Cn1ncc(Cl)c1-c1cc(Nc2ncc(C(F)(F)F)cn2)c(F)cc1OCCO` [Compound I-161], the Ki turned out to be 0.361 nM in test [1] (setting [3]) and 1.13 nM in test [2]. For the compound `Cn1ncc(Cl)c1-c1cc(Nc2ncc(Cl)cn2)c(F)cc1OCCO` [Compound I-162], the Ki is 0.395 nM in test [1] (setting [3]) and 4.25 nM in test [2].

As for `Cn1ncc(Cl)c1-c1cc(Nc2ccc(Cl)cn2)c(F)cc1OCCO` [Compound I-163], the Ki came out at 0.216 nM in test [1] (setting [3]) and 1.26 nM in test [2]. In the case of `Cn1ncc(Cl)c1-c1cc(Nc2ncc(F)cc2F)c(F)cc1OCCO` [Compound I-164], the Ki in test [1] (setting [3]) was 0.325 nM; in test [2] it was 2.09 nM.

Take `Cn1ncc(Br)c1-c1cc(Nc2ncc(F)cn2)c(F)cc1OCCO` [Compound I-165]: the inhibitory constant (Ki) came out at 0.389 nM in test [1] (setting [3]) and 9.78 nM in test [2].

`Cc1nc(C)c(-c2cc(Nc3ncc(Cl)cc3F)c(F)cc2OCCO)c(C)n1` [Compound I-166]: the Ki in test [1] (setting [3]) came out at 0.67 nM; in test [2] it was 5.57 nM.

For the compound `Cc1nc(C)c(-c2cc(Nc3ccc(Cl)cn3)c(F)cc2OCCO)c(C)n1` [Compound I-167], the Ki in test [1] (setting [3]) is 0.511 nM; in test [2] it was 5.37 nM. The matching figures for `Cn1ncc(Br)c1-c1cc(Nc2ncc(OC(F)(F)F)cc2F)c(F)cc1OCCO` [Compound I-168]: 0.248 nM and 0.162 nM. The matching figures for `COc1cnc(Nc2cc(-c3c(Cl)cnn3C)c(OCCO)cc2F)nc1` [Compound I-169]: 0.738 nM and 9.97 nM.

As to `Cn1ncc(F)c1-c1cc(Nc2ccc(C(F)(F)F)cn2)c(F)cc1OCCO` [Compound I-170], the values for the Ki in test [1] (setting [3]) and in test [2] were 0.212 nM and 5.45 nM, respectively.

Take `Cn1ncc(F)c1-c1cc(Nc2ncc(Cl)cc2F)c(F)cc1OCCO` [Compound I-171]: the Ki in test [1] (setting [3]) was 0.16 nM; in test [2], 5.81 nM.

Regarding `Cc1cc(Cl)cnc1Nc1cc(-c2c(C)cnn2C)c(OCCO)cc1F` [Compound I-172], the Ki in test [1] (setting [3]) stood at 0.812 nM; in test [2], 2.49 nM. The matching figures for `Cc1nc(C)c(-c2cc(Nc3ncc(Cl)cc3C)c(F)cc2OCCO)c(C)n1` [Compound I-173]: 1.42 nM and 5.11 nM. On the same counts, the results for `Cc1nc(C)c(-c2cc(Nc3ncc(OC(F)(F)F)cc3F)c(F)cc2OCCO)c(C)n1` [Compound I-174] are 0.888 nM and 2.15 nM. Take `Cc1nc(C)c(-c2cc(Nc3ncc(C(F)(F)F)cc3C)c(F)cc2OCCO)c(C)n1` [Compound I-175]: the Ki came out at 1.92 nM in test [1] (setting [3]) and 3.19 nM in test [2]. The matching figures for `Cc1cc(OC(F)F)cnc1Nc1cc(-c2c(C)cnn2C)c(OCCO)cn1` [Compound I-176]: 0.453 nM and 6.81 nM. As to `Cc1cc(OC(F)F)cnc1Nc1cc(-c2c(Br)cnn2C)c(OCCO)cn1` [Compound I-177], the Ki in test [1] (setting [3]) amounted to 0.331 nM; in test [2], 0.63 nM. As to `Cc1cnn(C)c1-c1cc(Nc2ncc(OC(F)F)cc2F)ncc1OCCO` [Compound I-178], the Ki was 0.386 nM in test [1] (setting [3]) and 3.34 nM in test [2]. The matching figures for `Cc1cc(OC(F)(F)F)cnc1Nc1cc(-c2c(Br)cnn2C)c(OCCO)cn1` [Compound I-179]: 0.278 nM and 0.296 nM. For the compound `Cc1nc(C)c(-c2cc(Nc3ncc(OCC(F)(F)C(F)(F)F)cc3Cl)ncc2OCCO)c(C)n1` [Compound I-250], in test [2], the Ki was 2.43 nM.
